Laboratory results reported in patent publication US8394769B2, “Anti-hypertensive agent” (MG Pharma Inc., priority 2007, dated 2013).

System: Spontaneously hypertensive rats (SHR/Izm)
Experiment: Systolic blood pressure in spontaneously hypertensive rats after single dose of synthesized peptides (2) to (6) (tail-cuff method)
Type: in vivo, rat
Settings: single dose 50 mg/kg body weight, *p < 0.05, **p < 0.01
Text: The following peptides were synthesized according to known methods, based on the amino acid sequences of peptides isolated from the globin proteolysate prepared in Experimental Example 3 and identified. The peptide (WGKV; SEQ ID NO:3) (3) corresponds to a peptide produced by one amino acid deletion at the C terminus from the amino acid sequence of the peptide (WGKVN; SEQ ID NO:2) (2), and the peptide (WGK; SEQ ID NO:4) (4) corresponds to a peptide produced by deleting a further amino acid at the C terminus.
Spontaneously hypertensive rats (SHR/Izm, male, 12-week-old, body weight: 285 g, Japan SLC, Inc.) were administered in a single dose with the peptides synthesized above (peptides (2) to (6)) in an amount of 50 mg/kg body weight. Two, four, and six hours after the start of administration, the systolic blood pressures of the rats were measured using a non-heating non-invasive blood pressure monitor (“MK-2000”, manufactured by Muromachi Kikai Co., Ltd.) by the tail-cuff method without using anesthesia. Spontaneously hypertensive rats as a control group were orally administered with a solvent (distilled water), and the systolic blood pressures of the rats were measured in a similar manner.

| Substance | Reduction in blood pressure, 2 hours after administration | Reduction in blood pressure, 4 hours after administration | Reduction in blood pressure, 6 hours after administration |
| --- | --- | --- | --- |
| Ala-Ala-Trp-Gly-Lys (AAWGK; Peptide found in globin hydrolysate) | −7 ± 4 mmHg | −8 ± 12 mmHg | −4 ± 8 mmHg |
| Phe-Glu-Ser (FES; Peptide found in globin hydrolysate) | −15 ± 4* mmHg | −13 ± 8 mmHg | −15 ± 6 mmHg |
| Trp-Gly-Lys (WGK; Peptide found in globin hydrolysate) | −3 ± 7 mmHg | −23 ± 8** mmHg | −15 ± 8 mmHg |
| Trp-Gly-Lys-Val (WGKV; Peptide found in globin hydrolysate) | −9 ± 3 mmHg | −4 ± 4 mmHg | −3 ± 3 mmHg |
| Trp-Gly-Lys-Val-Asn (WGKVN; Peptide found in globin hydrolysate) | −16 ± 4** mmHg | −12 ± 4* mmHg | −14 ± 3** mmHg |
